Earlier results, collected in US12357587B2, “Cannabinoid monoterpene based pharmaceutical topical composition for musculoskeletal pain” (MOUNTAIN VALLEY MD INC., priority 2022, dated 2025).

Experiments:
[1] = purified compound; rat chronic constriction injury

Question: For NC(=O)N1c2ccccc2C=Cc2ccccc21 [carbamezepine], which “decrease in white blood cell count” value (observed in 7% of patients, usually reversed within the first 4 months of therapy) is on record?
Answer: The value was 25%.

Question: And the “increase in the risk of blood dyscrasias” value (patients taking carbamezepine)?
Answer: Its value is “five- to eight”.

Question: What about the “patients with a 25% decrease in white blood cell count” value (usually reversed within the first 4 months of therapy) of the same molecule?
Answer: Its value is 7%.

Question: Which “relief of neuropathic pain” value [1] does the source give for C=C(C)[C@@H]1CCC(C)=C[C@H]1c1c(O)cc(CCCCC)cc1O [cannabidiol (CBD), cannabidiol] here?
Answer: Its value is “partially relieved neuropathic pain”.
